Measured values as given in BindingDB's records for doi:10.1016/S0960-894X(96)00606-3 (1997).

biological target: T1, C5a anaphylatoxin chemotactic receptor 1 (Homo sapiens, UniProt P21730); assay: ChEBML_41457
T1 sequence (P21730 whole entry): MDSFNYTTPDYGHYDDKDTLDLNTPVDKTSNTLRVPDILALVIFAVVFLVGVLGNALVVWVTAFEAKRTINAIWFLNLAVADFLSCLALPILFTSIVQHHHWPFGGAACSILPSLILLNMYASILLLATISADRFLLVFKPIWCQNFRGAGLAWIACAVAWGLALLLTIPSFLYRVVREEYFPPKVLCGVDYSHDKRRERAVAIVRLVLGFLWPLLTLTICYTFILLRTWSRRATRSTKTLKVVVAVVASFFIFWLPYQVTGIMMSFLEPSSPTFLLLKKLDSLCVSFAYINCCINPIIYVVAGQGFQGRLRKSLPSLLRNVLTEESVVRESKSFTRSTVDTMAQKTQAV
Excerpt: Tested for its ability to compete with [125I]C5a for binding to C5a anaphylatoxin chemotactic receptor of human neutrophil membrane preparations

Compound	IC50 [µM]
NCCCCc1[nH]c(=O)n([C@H](CC2CCCCC2)C(=O)N2CCC3(CCc4ccccc43)CC2)c1O [5-(4-aminobutyl)-3-[1-cyclohexylmethyl-2-oxo-2-spiro[2,3-dihydro-1H-indene-1,4'-(hexahydropyridine)]-1-yl-(1R)-ethyl]-(5R)-tetrahydro-1H-2,4-imidazoledione]	4
N=C(N)NCCCc1[nH]c(=O)n([C@H](Cc2ccc(O)cc2)C(=O)N2CCC3(CCc4ccccc43)CC2)c1O [5-[3-amino(imino)methylaminopropyl]-3-[1-(4-hydroxybenzyl)-2-oxo-2-spiro[2,3-dihydro-1H-indene-1,4'-(hexahydropyridine)]-1-yl-(1R)-ethyl]-(5R)-tetrahydro-1H-2,4-imidazoledione]	4
CCC[C@H](C(=O)N1CCC2(CCc3ccccc32)CC1)n1c(O)c(CCCNC(=N)N)[nH]c1=O [5-[3-amino(imino)methylaminopropyl]-3-[1-spiro[2,3-dihydro-1H-indene-1,4'-(hexahydropyridine)]-1-ylcarbonyl-(1R)-butyl]-(5R)-tetrahydro-1H-2,4-imidazoledione]	3
N=C(N)NCCCc1[nH]c(=O)n(C(CCc2ccccc2)C(=O)N2CCC3(CCc4ccccc43)CC2)c1O [5-[3-amino(imino)methylaminopropyl]-3-[3-phenyl-1-spiro[2,3-dihydro-1H-indene-1,4'-(hexahydropyridine)]-1-ylcarbonylpropyl]-(5R)-tetrahydro-1H-2,4-imidazoledione]	3
